The values that follow come from PMC8347512, “Synthesis and Biological Assessment of 4,1-Benzothiazepines with Neuroprotective Activity on the Ca^2+ Overload for the Treatment of Neurodegenerative Diseases and Stroke” (Molecules, 2021).

Data set [1] in a line: Solubility as observed during testing. In kind it is physicochemical.
The test system of data set [2] is SH-SY5Y cells. The data set is described as follows: Per se toxicity, MTT reduction, SH-SY5Y cells. In kind it is cell-based. The protocol:
(§1) The neuroblastoma SH-SY5Y cell line was obtained from the American Type Culture Collection (ATCC-CRL-2266), maintained and cultured in a 1:1 mixture of MEM and F12 media with 10% of fetal bovine serum (FBS), according to procedures previously described. For fluorescence-based [Ca^2+]c measurements, SH-SY5Y cells were seeded in clear-bottomed, 96-well black plates at a density of 40,000 cells/well. For viability assays, SH-SY5Y cells were seeded in 48-well plates at a density of 70,000 cells/well following the procedure recently reported. Rat cortical embryonic neurons were prepared from 19-day-old embryos directly seeded in the plate well treated with poly-D-lysine in neurobasal medium (Gibco 21103, Madrid, Spain) supplemented with 1% of L-glutamine (Sigma, G6392), 0.5% of penicillin/streptomycin and 0.1% of gentamincine. In fluorescence-based [Ca^2+]c measurement, neurons were seed at clear-bottomed, 96-well black plates at a density of 30,000 cells/well. For viability assays, the rat cortical neurons were also seeded in 48-well plates at a density of 40,000 cells/well. All the biological assays were conducted under sterile conditions.
The per se toxicity of the new synthetized compounds was assessed in both cell cultures by the method of MTT reduction. […] The viability of cultures was measured 20 h later, following a procedure recently described. […]
(Tetrazolium assays rely on reduction of a dye to a coloured formazan, in cell work by metabolically active cells.)

For data set [3], the system named is rat cortical neurons. The data set is described as follows: Neuroprotection against glutamate 50 μM, MTT, rat cortical neurons. The format is cell-based. Particulars: compounds 10 μM. How it is done:
as §1
(§2) The effect of compounds on the SH-SY5Y cells and rat cortical neurons viability compromised of different toxics was also evaluated by method of MTT reduction. Twenty-four hours after seeding, SH-SY5Y cells were preincubated with compounds at the concentration of 10 μM for 24 h. Afterwards, MEM/F12 medium was replaced by one fresh with 1% FBS, compounds at the same concentration, and rotenone/oligomycin A administered to media at the concentration of 30/10 μM, respectively. The cultures’ viability was measured 20 h later, following the MTT procedure recently described. As reference neuroprotective compound, melatonin 10 nM was selected. In the case of the rat cortical neurons, 7 days after seeding in 48-well plates, neurons were preincubated adding the compounds at a final concentration of 10 μM for 24 h. Then, toxic stimuli of 50 µM of glutamate was added to the wells. After 20 h, cell viability was measured by the MTT procedure. Here, the reference protective compound used was memantine (30 nM).

The test system of the next data set is VGCC. The data set is described as follows: Blockade of 70 mM K+-evoked cytosolic Ca2+ elevation (Fluo-4/AM) in SH-SY5Y cells. The format is cell-based. How it is done:
as §1
(§3) To assess the blocking effect of compounds on the VGCC, we used SH-SY5Y cells charged with the Ca^2+-sensitive fluorescent dye Fluo-4/AM at 10 μM in Krebs-HEPES buffer, following a protocol recently described. Compounds were incubated at the desired concentrations (1, 3, 10, and 30 μM). The Ca^2+ entry was favored by addition of K^+ 70 mM to the extracellular medium. To evaluate the blocking effect of compounds on NMDA receptors, we have followed a protocol recently reported by our research group. Rat cortical neurons were charged with Fluo-4/AM at 3 μM in Krebs-HEPES buffer and compounds incubated at same concentrations than before. To stimulate Ca^2+ entry through the NMDA-sensitive glutamate receptors, NMDA was applied at 10 μM. In both cases, fluorescence oscillations as result of the [Ca^2+]c increases were real-time monitored in a multi-well fluorescence plate reader (FluoStar Optima, BMG, Germany), with excitation and emission wavelengths of 485 and 520 nm, respectively. Data were calculated as fluorescence increase (ΔF), according to the formula: ΔF=Fx−Fo /Fmax−Fmin where Fx is the maximum fluorescence obtained after Ca^2+ entry stimulation, F0 is the averaged fluorescence before, Fmax is the maximum fluorescence of the well obtained by treating cells with 5% Triton X-100, and the Fmin is the minimum fluorescence of well obtained by adding MnCl2 1 M to the previously Triton-lysed cells. The ΔF data were normalized respect to the control (ΔFc). Data are presented as percentage of blockade (100% ΔF) at the concentration of 10 μM, or as IC50, i.e., the concentration of compound capable of halving the ΔFc (%ΔF = 50).

Data set [4] concerns SH-SY5Y cells. The data set is described as follows: Neuroprotection against rotenone/oligomycin A (R/O), MTT, SH-SY5Y cells. The format is cell-based. The settings on record: R/O 30/10 μM, compounds 10 μM. The protocol:
as §1, §2

For a further data set, the system named is NMDA receptors. The data set is described as follows: Blockade of NMDA-evoked cytosolic Ca2+ elevation (Fluo-4/AM) in rat cortical neurons. In kind it is cell-based. The settings on record: for pIC50: rat cortical embryonic neurons, NMDA 10 μM, compounds 1 to 30 μM, read-out: IC50, NMDA-evoked [Ca2+]c elevation. The protocol:
as §1
as §3, with “To evaluate the blocking effect of compounds on NMDA receptors, we have followed a protocol recently reported by our research group.” left out, “(ΔFc).” for “(ΔFc). Data are presented as percentage of blockade (100% ΔF) at the concentration of 10 μM, or as IC50, i.e., the concentration of compound capable of halving the ΔFc (%ΔF = 50).”

Data set [5] is described as follows: Blood-brain barrier permeation assay (PAMPA), porcine brain lipid. The format is in vitro ADME. The settings on record: pH 7.4, threshold value of 40 nm/s, read-out: Pe, in vitro permeability (PAMPA-BBB). How it is done: The parallel artificial membrane permeation assay (PAMPA) was used to predict the capacity of compounds to cross the blood–brain barrier (BBB) by passive diffusion, in a similar manner as previously described. Compounds were dissolved in 10 mM phosphate-buffered saline (PBS) buffer (pH 7.4) to the concentration of 100 µM. The filter membrane of the donor 96-well plate (Multiscreen IP sterile clear plate PDVF membrane, pore size […]) was impregnated with 4 µL of porcine brain lipid (PBL) (Avanti Polar Lipids, Inc., Alabaster, AL, USA) in dodecane (20 mg/mL), and after 5 min, 180 µL of each compound solution was added. The acceptor 96-well plate (Multiscreen, Millipore Corp. Burlington, MA, USA) was filled with 180 µL of PBS and 1% of DMSO. Finally, the donor filter plate was carefully put on the acceptor plate to form a “sandwich”, which was left undisturbed for 4 h at rt. After incubation, an UV plate reader determined the concentration of compounds in both acceptor and donor wells (150 µL/well) as the maximum absorption wavelength of each compound. Concentration of the compounds in the donor and acceptor well, and equilibrium concentration were calculated from the standard curve and expressed as the permeability (Pe), according to the following formula: logPe=logC×−ln1−drugacceptor/drugequilibrium whereC=Vdonor×Vaceptor/Vdonor+Vaceptor×Area×Time)
Results are expressed as mean ± SEM of three different experiments in duplicate.

The subject of data set [6] is rat cortical neurons. The data set is described as follows: Per se toxicity, MTT reduction, rat cortical neurons. The format is cell-based. The settings on record: 48 h. The protocol:
as §1
The per se toxicity of the new synthetized compounds was assessed in both cell cultures by the method of MTT reduction. After 24 h of seeding, SH-SY5Y cells were preincubated with compounds at different concentrations (1, 3, 10, and 30 μM) for 24 h. Afterwards, MEM/F12 medium was replaced by one fresh with 1% FBS with the compounds at the same concentration. The viability of cultures was measured 20 h later, following a procedure recently described. In the case of rat cortical neurons, 7 days after seeding, compounds were added to the wells to reach a final concentration of 1, 3, 10, and 30 μM. Forty-eight hours later, neuron viability was measure by the same procedure as the one described for SH-SY5Y cells.

Setting [7] is: compounds 1 to 30 μM, Fluo-4/AM, read-out: IC50, concentration halving the 70 mM K+-evoked Ca2+ elevation.

The structures appear in SMILES notation. pIC50: −log10 of the molar value. Read-outs that look alike come from different tables or passages of the source. Bounds are passed on as bounds.

With `CC(C)c1ccc(C2SCC(=O)Nc3ccc(Cl)cc32)cc1` (centres unmarked) [compound 12, 7-Chloro-5-(4′-isopropylphenyl)-3,5-dihydro-4,1-benzothiazepin-2-(1H)-one], the melting point fell in the range of 240 to 243 °C. In addition, the “Solubility (observation)” value in [1] is given as “some solubility problems were appreciated”. Further, the “Effect on cell viability of SH-SY5Y cells (per se toxicity)” value in the data set with SH-SY5Y cells [2] (compounds at 1, 3, 10 and 30 μM) is “did not produce a dramatic loss of cell viability”.

The compound `CC(C)c1cccc(C2SCC(=O)Nc3ccc(Cl)cc32)c1` (centres unmarked) [compound 13, 7-Chloro-5-(3′-isopropylphenyl)-3,5-dihydro-4,1-benzothiazepin-2-(1H)-one] registered a melting point of 218 to 220 °C. Besides, the “Effect on cell viability of SH-SY5Y cells at 30 μM” value in the data set on SH-SY5Y cells [2] (30 μM) was “remarkable cytotoxic profile”.

`CC(C)c1ccccc1C1SCC(=O)Nc2ccc(N(C)C)cc21` (centres unmarked) [compound 21, 7-Dimethylamino-5-(2′-isopropylphenyl)-3,5-dihydro-4,1-benzothiazepin-2-(1H)-one] displayed a melting point of 108 to 112 °C. For the same compound, the “Protection against glutamate-elicited neurotoxicity (in words)” value with rat cortical neurons [3] is “statistically significant dissipation of the glutamate-elicited neurotoxicity”. The “Decrease of K+-evoked Ca2+ signaling compared with nifedipine” value with VGCC (compounds 10 μM, nifedipine 10 μM) was “in a similar manner or even better than the reference compound nifedipine”. Further, the pIC50 in the data set on VGCC (read-out: IC50, concentration halving the 70 mM K+-evoked Ca2+ elevation, compounds 1 to 30 μM, Fluo-4/AM) was 5.27. Further, the “Protection against R/O-induced oxidative stress (in words)” value in the data set on SH-SY5Y cells [4] is listed as “clear trend to protect against oxidative stress”. Also, in the data set on NMDA receptors, the pIC50 is 5.21. The “Mitigation of the NMDA-elicited Ca2+ increase compared with memantine” value in the data set on NMDA receptors (rat cortical neurons, compounds 10 μM, memantine 10 μM) is “noticeable mitigation of the NMDA-elicited Ca^2+ increase, even higher than that exerted by the reference compound memantine”. Moreover, the Papp at 4 h, 100 µM in [5] was over 4 ×10⁻⁶ cm/s.

In the case of `COc1ccccc1C1SCC(=O)Nc2ccccc21` (centres unmarked) [compound 33, 5-(2′-Methoxyphenyl)-3,5-dihydro-4,1-benzothiazepin-2-(1H)-one], the melting point fell in the range of 216 to 218 °C. In addition, the “Protection against glutamate-elicited neurotoxicity (in words)” value in the data set on rat cortical neurons [3] is listed as “statistically significant dissipation of the glutamate-elicited neurotoxicity”. The pIC50 in the data set with VGCC (setting [7]) is under 4.52. The pIC50 in the data set on NMDA receptors was under 4.52. Besides, the “Effect on cell viability of rat cortical neurons at 30 μM” value with rat cortical neurons [6] is on record as “slightly reduced cell viability in a significant manner”.

In the case of `O=C1CSC(c2ccccc2)c2cnccc2N1` (centres unmarked) [compound 38, 5-Phenyl-3,5-dihydropyrido[4,3-e][1,4]thiazepin-2-(1H)-one], the melting point is 138 to 143 °C. For the same compound, in the data set on rat cortical neurons [3], the “Protection against glutamate-elicited neurotoxicity (in words)” value was “nicely recovered cell viability”. In the data set with VGCC (setting [7]), the pIC50 is 4.55. In the data set on SH-SY5Y cells [4], the “Protection against R/O-induced oxidative stress (in words)” value was “neuroprotective profile against oxidative stress”. Also, the pIC50 in the data set with NMDA receptors is under 4.52.

Broadly, the melting point is the temperature of the solid-liquid transition.
